From PubChem BioAssay (NCI)
Values joined by “and” are separate entries in the source; they are usually repeats but may differ in a detail not shown here. Equal entries are not always repeated.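 Test compounds were applied to cells in 96-well plates for 48 hours at 5 doses. The concentration for 50% growth inhibition is given as GI50. The concentration for full growth arrest is given as TGI.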

What was measured:
Assay in all cases: inhibition of tumour cell growth, NCI panel, 48 h
[1] = test system: 786-0 renal
[2] = test system: CAKI-1 renal
[3] = test system: K-562 leukemia
[4] = test system: MALME-3M melanoma
[5] = test system: MOLT-4 leukemia
[6] = test system: NCI-H460 lung
[7] = test system: SF-539 CNS
[8] = test system: SK-MEL-5 melanoma
[9] = test system: SW-620 colon
[10] = test system: T-47D breast

N#CC1=C(N)NC(=S)NC12Nc1ccccc1N2
GI50 [1]: 51.7 µM
TGI [1]: > 100 µM
GI50 [2]: 19.8 µM
TGI [2]: > 100 µM
GI50 [3]: 28.1 µM
TGI [3]: > 100 µM
GI50 [4]: 13.5 µM
TGI [4]: 69.2 µM
GI50 [5]: 22.2 µM
TGI [5]: > 100 µM
GI50 [6]: 28.7 µM
TGI [6]: > 100 µM
GI50 [7]: 42.4 µM
TGI [7]: > 100 µM
GI50 [8]: 18.1 µM
TGI [8]: 61 µM
GI50 [9]: 59.5 µM
TGI [9]: > 100 µM
GI50 [10]: 69.7 µM
TGI [10]: > 100 µM

O=C(Nc1nc2ccc(F)cc2s1)c1cccnc1Nc1ccc(Cl)cc1
GI50 [1]: 2.93 µM
TGI [1]: > 100 µM
GI50 [2]: 2.56 µM
TGI [2]: > 30.8 µM
GI50 [3]: 0.961 µM
TGI [3]: > 100 µM
GI50 [4]: 2.22 µM
TGI [4]: > 27 µM
GI50 [5]: 2.47 µM
TGI [5]: > 27 µM
GI50 [6]: 2.22 µM
TGI [6]: > 100 µM
GI50 [7]: 2.89 µM
TGI [7]: > 27.9 µM
GI50 [8]: 1.39 µM
TGI [8]: 3.38 µM
GI50 [9]: 3.04 µM
TGI [9]: > 100 µM
GI50 [10]: 1.04 µM
TGI [10]: > 29.2 µM

CC1(C)CCC(C)(C)c2c1ccc(O)c2Cc1c(O)ccc2c1C(C)(C)CCC2(C)C
TGI [1]: 3.61 µM
TGI [2]: 4.2 µM
TGI [3]: 5.41 µM
TGI [4]: 6.6 µM
TGI [5]: 4.71 µM
TGI [6]: 5.77 µM
TGI [7]: 4.05 µM
TGI [8]: 3.51 µM
TGI [9]: 5.05 µM
TGI [10]: 3.8 µM

COc1ccc2nc3ccccc3c(NCCCN(C)CCCl)c2c1
TGI [1]: 1.07 µM
TGI [2]: 1.62 µM
TGI [3]: 2.59 µM
TGI [4]: 1.55 µM
TGI [5]: 0.888 µM
TGI [6]: 1.07 µM
TGI [7]: 1.29 µM
TGI [8]: 1.59 µM
TGI [9]: 1.48 µM
TGI [10]: 0.467 µM

O=C1OC(c2ccccc2)(c2cc(Br)c(O)c(Br)c2)c2ccccc21 (configuration not stated)
GI50 [1]: 19.3 µM
TGI [1]: 38.7 µM
GI50 [2]: 29.2 µM
TGI [2]: > 100 µM
GI50 [3]: 32.5 µM
TGI [3]: > 100 µM
GI50 [4]: 25.3 µM
TGI [4]: 77.5 µM
GI50 [5]: 30.4 µM
TGI [5]: > 100 µM
GI50 [6]: 19.6 µM
TGI [6]: 43.9 µM
GI50 [7]: 26.6 µM
TGI [7]: 80.6 µM
GI50 [8]: 14.5 µM
TGI [8]: 30.7 µM
GI50 [9]: 27 µM
TGI [9]: > 100 µM
GI50 [10]: 26.8 µM
TGI [10]: > 100 µM

CNC(=O)Oc1cc(C)c(/C=C/c2cncc(C(=O)NC)c2)c(C)c1
GI50 [1]: > 25 µM
TGI [1]: > 25 µM
GI50 [2]: > 25 µM
TGI [2]: > 25 µM
GI50 [3]: 15.3 µM
TGI [3]: > 25 µM
GI50 [4]: 13.6 µM
TGI [4]: > 25 µM
GI50 [5]: > 25 µM
TGI [5]: > 25 µM
GI50 [6]: > 25 µM
TGI [6]: > 25 µM
GI50 [7]: > 21.6 µM
TGI [7]: > 25 µM
GI50 [8]: > 22.1 µM
TGI [8]: > 25 µM
GI50 [9]: > 25 µM
TGI [9]: > 25 µM
GI50 [10]: > 25 µM
TGI [10]: > 25 µM

C=CN(C)S(C)(=O)=O
GI50 [1]: > 100 µM
TGI [1]: > 100 µM
GI50 [2]: > 100 µM
TGI [2]: > 100 µM
GI50 [3]: > 100 µM
TGI [3]: > 100 µM
GI50 [4]: > 100 µM
TGI [4]: > 100 µM
GI50 [5]: > 100 µM
TGI [5]: > 100 µM
GI50 [6]: > 100 µM
TGI [6]: > 100 µM
GI50 [7]: > 100 µM
TGI [7]: > 100 µM
GI50 [8]: > 100 µM
TGI [8]: > 100 µM
GI50 [9]: > 100 µM
TGI [9]: > 100 µM
GI50 [10]: > 100 µM
TGI [10]: > 100 µM

COc1cc(O)c2c(c1)C(=O)c1cc3c(c(O)c1C2=O)C(OC1OC(C)C(O)C(O)C1OC)C(OC)C(C)(O)C3=O (configuration not stated)
GI50 [1]: 2.42 µM
TGI [1]: 40.5 µM
GI50 [2]: 1.99 µM and 0.671 µM
TGI [2]: 6.82 µM and 4.95 µM
GI50 [3]: 2.24 µM and 12.2 µM
TGI [3]: > 100 µM and 72.5 µM
TGI [4]: 2.54 µM and 2.65 µM
GI50 [5]: 3.21 µM and 5.19 µM
TGI [5]: 11.7 µM and 17.3 µM
GI50 [6]: 1.27 µM
TGI [6]: 4.54 µM and 4.77 µM
TGI [7]: 4.52 µM and 5.99 µM
GI50 [8]: 1.27 µM
TGI [8]: 2.57 µM and 2.26 µM
GI50 [9]: 2.3 µM
TGI [9]: 8.38 µM and 5.41 µM
GI50 [10]: 3.12 µM
TGI [10]: 9.21 µM

C[C@H]1[C@H]2[C@H]3CC[C@@H]4[C@@]5(C)C/C(=C/c6cccnc6)C(=O)C(C)(C)[C@@H]5CC[C@@]4(C)[C@]3(C)CC[C@]23CO[C@]1(C)[C@@H](C(=O)/C=C\c1cccnc1)C3
GI50 [1]: 0.905 µM
TGI [1]: 1.95 µM
GI50 [2]: 1.45 µM
TGI [2]: > 15.4 µM
GI50 [3]: 0.151 µM
TGI [3]: > 50 µM
GI50 [4]: 0.849 µM
TGI [4]: 1.91 µM
GI50 [5]: 0.524 µM
GI50 [6]: 0.929 µM
TGI [6]: 1.94 µM
GI50 [7]: 1.03 µM
TGI [7]: 2.31 µM
GI50 [8]: 0.836 µM
TGI [8]: 1.54 µM
GI50 [9]: 1.02 µM
TGI [9]: 2.51 µM
GI50 [10]: 1.98 µM
TGI [10]: > 50 µM

COc1ccc(-c2cc(-c3ccc(O)cc3)nc3n[nH]c(N)c23)cc1
GI50 [1]: 26 µM
TGI [1]: 74.3 µM
GI50 [2]: 20.2 µM
TGI [2]: 78.3 µM
GI50 [3]: 35.3 µM
TGI [3]: > 100 µM
GI50 [4]: 21 µM
TGI [4]: 44 µM
GI50 [5]: 26.9 µM
TGI [5]: > 100 µM
GI50 [6]: 21.6 µM
TGI [6]: 58.2 µM
GI50 [7]: 14.7 µM
TGI [7]: 28.6 µM
GI50 [8]: 15.1 µM
TGI [8]: 28.8 µM
GI50 [9]: 15.6 µM
TGI [9]: 38.1 µM
GI50 [10]: 18 µM
TGI [10]: 83.5 µM

CCc1ccc2c(c1)N(CCO)C1=C(C(=O)OC1)C2c1cccc(Cl)c1 (configuration not stated)
GI50 [1]: 0.736 µM
TGI [1]: 19 µM
GI50 [2]: 3.02 µM
TGI [2]: 35.1 µM
GI50 [3]: 0.485 µM
TGI [3]: 23.9 µM
GI50 [4]: 2.82 µM
TGI [4]: 27.4 µM
GI50 [5]: 1.78 µM
TGI [5]: 48.5 µM
GI50 [6]: 0.393 µM
TGI [6]: 12.5 µM
GI50 [7]: 0.488 µM
TGI [7]: 11.4 µM
GI50 [8]: 0.357 µM
TGI [8]: 7.56 µM
GI50 [9]: 0.416 µM
TGI [9]: 21.7 µM
GI50 [10]: 0.583 µM
TGI [10]: 26.4 µM

COc1ccc(-c2nc(N3CCN(C(=O)C4CCCCC4)CC3)c3c4c(sc3n2)CCCC4)cc1
GI50 [1]: 38.2 µM
TGI [1]: > 100 µM
GI50 [2]: 60.6 µM
TGI [2]: > 100 µM
GI50 [3]: > 100 µM
TGI [3]: > 100 µM
GI50 [4]: 92.1 µM
TGI [4]: > 100 µM
GI50 [5]: > 100 µM
TGI [5]: > 100 µM
GI50 [6]: > 100 µM
TGI [6]: > 100 µM
GI50 [7]: 39.4 µM
TGI [7]: > 100 µM
GI50 [8]: 68.9 µM
TGI [8]: > 100 µM
GI50 [9]: > 100 µM
TGI [9]: > 100 µM
GI50 [10]: 20.6 µM
TGI [10]: > 100 µM

Nc1c(C(=O)c2ccc(CCCN3CCOCC3)cc2)cnn1-c1ccc(F)cc1
GI50 [1]: > 25 µM
TGI [1]: > 25 µM
GI50 [2]: > 25 µM
TGI [2]: > 25 µM
GI50 [3]: 9.33 µM
TGI [3]: > 25 µM
GI50 [4]: > 25 µM
TGI [4]: > 25 µM
GI50 [5]: > 25 µM
TGI [5]: > 25 µM
GI50 [6]: > 25 µM
TGI [6]: > 25 µM
GI50 [7]: > 25 µM
TGI [7]: > 25 µM
GI50 [8]: 8.01 µM
TGI [8]: 24.3 µM
GI50 [9]: > 25 µM
TGI [9]: > 25 µM
GI50 [10]: 10.3 µM
TGI [10]: > 25 µM
